This assay has as its target T1, human H4 receptor (Homo sapiens, UniProt Q9H3N8).
T1 construct: expressed in transfected cells
Put plainly: Binding Assay on Recombinant Human Histamine H4 Receptor. Particulars: [3H] histamine competition binding, membranes of SK-N-MC cells transfected with human H4 receptor, average of results. The method, boiled down: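 Radioligand binding used membranes from SK-N-MC cells stably or transiently expressing human H4, prepared in 50 mM Tris/5 mM EDTA. Nonspecific binding was defined with 100 μM histamine. Bound radioactivity was counted after filtration on PEI-treated GF/C filters, and ">" values are the highest concentration tested.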

Here are results for four compounds from patent US8716475B2, “2-aminopyrimidine modulators of the histamine H4 receptor” (Janssen Pharmaceutica NV, priority 2007, dated 2014).

T1 sequence (Q9H3N8 whole entry): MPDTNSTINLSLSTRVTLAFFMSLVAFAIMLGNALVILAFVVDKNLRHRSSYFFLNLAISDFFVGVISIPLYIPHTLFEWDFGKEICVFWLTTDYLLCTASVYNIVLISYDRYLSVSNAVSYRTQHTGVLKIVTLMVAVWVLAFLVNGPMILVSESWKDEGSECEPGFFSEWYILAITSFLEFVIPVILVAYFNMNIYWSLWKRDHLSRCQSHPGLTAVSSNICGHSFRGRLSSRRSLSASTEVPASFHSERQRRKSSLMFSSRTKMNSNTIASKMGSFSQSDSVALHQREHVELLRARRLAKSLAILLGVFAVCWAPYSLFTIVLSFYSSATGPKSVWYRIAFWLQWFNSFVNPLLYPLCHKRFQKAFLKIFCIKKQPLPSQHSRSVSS

As to `CCCCc1cc(N2CC3CCCNC3C2)nc(N)n1` (stereo not drawn) [Example 141, 4-Butyl-6-(cis-octahydro-pyrrolo[3,4-b]pyridin-6-yl)-pyrimidin-2-ylamine], the Ki (Table 2) is 84 nM. Regarding `Nc1nc(Cc2cccs2)cc(N2CC[C@@H](N)C2)n1` [Example 216, (R)-4-(3-Amino-pyrrolidin-1-yl)-6-thiophen-2-ylmethyl-pyrimidin-2-ylamine], the Ki (Table 2) turned out to be 32 nM.

With `Nc1nc(C2CCC2)cc(N2C[C@H]3CNC[C@H]3C2)n1` [Example 48, 4-Cyclobutyl-6-(cis-hexahydro-pyrrolo[3,4-c]pyrrol-2-yl)-pyrimidin-2-ylamine], the Ki (Table 1) turned out to be 328 nM. Consider `Nc1nc(Cc2ccc(Cl)cc2)cc(N2CC[C@@H](N)C2)n1` [Example 235, (R)-4-(3-Amino-pyrrolidin-1-yl)-6-(4-chloro-benzyl)-pyrimidin-2-ylamine], for which the Ki (Table 2) came out at 140 nM.
